The test system of one data set is L929 (Mouse Fibroblast). Put plainly: In vitro wound healing scratch assay, L929 cells. It is filed as cell-based. Here is the method:
(§1) In order to determine the effect of the gel on wound healing, its capacity for cell migration and wound closure was analyzed by using the scratch assay described in the literature (Walter et al. 2010). […] The cells were seeded onto 12 well culture plates at a concentration of 100,000 cells/well, and by storing them in a carbon dioxide incubator so that they were enabled to attach and reach the sufficient density. Scratches were formed by using 200 μl pipette tip such that they will be perpendicular to the horizontal lines drawn by an acetate pen from the center of the wells to the outside of the wells. Gel combination was applied on the cells and scratch closure was observed. Setrach closure (FIG. 6-7) was analyzed by using NIH Image program upon photographing the regions of the straches which correspond to the lines drawn by an acetate pen and which are in the field of view of the microscope at 0, 12 and 24 hours.

In the next data set the test system is HF (Human Fibroblast). Put plainly: In vitro wound healing scratch assay, human fibroblast cells. It is filed as cell-based. Here is the method: as §1
A further data set relates to L929-HUVEC co-culture. The data set is described as follows: In vitro wound healing scratch assay, L929-HUVEC co-culture. It is filed as cell-based. Here is the method:
as §1

Another data set has as its system Akt gene. Put plainly: Real time PCR, Akt gene level. In kind it is cell-based. Here is the method: (§2) Real time PCR (Polymerase Chain Reaction) analyses were performed according to the literature by using SYBR Green method (Yalvac et al, 2010). The primers belonging to the collagen, fibronectin, laminin, Akt, Bax and P53 genes were designed using Primer BLAST software (The National Center for Biotechnology=NCBI). Total RNAs were isolated from the cells on which gel combination was applied and cDNA was synthesized. The synthesized cDNAs were mixed with primers in SYBR Green mix solution such that the final volume will be 20 μl and the expression levels of the genes (FIG. 8) were analyzed by using BIO-RAD device.
(Quantitative PCR measures a nucleic acid by following its amplification.)

A further data set has as its system Bax and p53 genes. Put plainly: Real time PCR, apoptotic gene levels. In kind it is cell-based. Here is the method: as §2
A further data set deals with glutathione peroxidase. Put plainly: Glutathione peroxidase enzyme activity assay in treated cells. It is filed as cell-based. The following applies: in comparison to the control group. Here is the method:
(§3) Antioxidant parameters were determined by glutathione peroxidase and superoxide dismutase enzyme activity assay and analysis of the MDA (malondialdehyde) levels. The cells which were subjected to the gel combination, to the active agent and only to the medium for control purposes in 6-well culture plates were collected and protein isolation was performed from the cell pellet by determined by measuring absorbance and drawing a standard curve at 595 nm wavelength with Bradford solution in 96-well ELISA plates by using bovine albumin protein standards (0.125, 0.25, 0.5, 0.75, 1.0, 1.5, 2.0 mg/ml). The enzyme activity assays and MDA levels were determined such that they wilt comply with the protocols given in commercials kits (FIG. 9).

The subject of another data set is superoxide dismutase. The data set is described as follows: Superoxide dismutase enzyme activity assay in treated cells. Conditions: determined indirectly. In kind it is cell-based. Here is the method: as §3
For a further data set, the system named is malondialdehyde. The data set is described as follows: Malondialdehyde (MDA) level in treated cells. In kind it is cell-based. Conditions: in comparison to the control group. Here is the method:
as §3

On to sodium pentaborate pentahydrate, for which the wound closure in the data set on L929 (Mouse Fibroblast) (12 hours) was 71%. Moreover, the wound closure rate turned out to be 84% with L929 (Mouse Fibroblast) (24 hours); 58% in the data set on HF (Human Fibroblast) (12 hours); 91% in the data set with HF (Human Fibroblast) (24 hours); 59% in the data set with L929-HUVEC co-culture (12 hours); 100% in the data set with L929-HUVEC co-culture (24 hours). Moreover, the akt gene levels result with Akt gene is listed as “decreased”. Moreover, the “apoptotic gene levels (Bax, p53)” value in the data set on Bax and p53 genes is “decreased”. Further, the “glutathione peroxidase enzyme activity” value with glutathione peroxidase is “substantial amount of enzyme activity”. The “superoxide dismutase enzyme activity” value with superoxide dismutase is given as “high level of enzyme activity”. For the same substance, the malondialdehyde levels result with malondialdehyde is recorded as “low MDA levels”. The karyotype result with human fibroblast cells is given as “maintained their normal karyotypes”.

These data come from patent US9655990B2, “Polymer based hydrogel” (YEDITEPE UNIVERSITESI, priority 2013, dated 2017).
